Laboratory results taken from US20220031800A1, “PEPTIDES FOR TREATING NON-EXUDATIVE MACULAR DEGENERATION AND OTHER DISORDERS OF THE EYE” (Allegro Pharmaceuticals, LLC, priority 2019, published 2022).
Square brackets hold non-standard residues; d marks the D form. Peptide text beside a SMILES is read from it. Cya = N[C@@H](CS(=O)(=O)O)C(=O)O

How the values were obtained:
[1] = system: study eye of subjects with intermediate non-exudative AMD; experiment: Best corrected visual acuity (BCVA, letters read) in Dry AMD study; format: in vivo, human
Protocol: The subjects in Groups 1 and 2 received the following treatments: Thus, subjects in Group 1 received an initial sham injection in the study eye followed by a single 1 mg dose of risuteganib in the study eye. The subjects in Group 2 received a total of two (2) doses of risuteganib (1 mg per dose) in the study eye. Numerous study assessments were conducted at various time points throughout the study. Included among these study assessments were; refractive eye examinations, determinations of BCVA AND low-luminance BCVA, Lanthony D-15 color vision test, measurement of intraocular pressure (IOP), Indirect ophthalmoscopy/dilated fundus examinations and spectral-domain optical coherence tomography (SD-OCT). Also, blood and saliva samples were obtained from each subject for genetic analysis. The above-listed study assessments were performed at the time points indicated in Table 1, below: For this study, a primary efficacy endpoint was deemed to be the percentage of population with an improvement in BCVA of at least 8 letters (1.5 lines) BCVA.

primary human RPE cells = experiment: WST-1 cell viability of primary human RPE cells exposed to hydroquinone; format: cell-based; conditions: 0.4 mM risuteganib co-treatment with HQ 125-180 uM
Protocol: Purpose: To determine if risuteganib protects against hydroquinone (HQ)-mediated cell injury, elevated ROS level and reduced mitochondrial membrane potential (Δψm) in cultured human RPE cells. Elevated ROS levels increase oxidative stress in the cells, leading to reduced cell health and cell death. Loss of ΔΨm is a marker for early cell death. Methods: Primary human RPE cells were seeded on collagen-coated 96-well plates in triplicates at 8K, 10K and […] cells/well, respectively. Cells reached 80% to 100% confluence 24 hours after plating, and confluent cells were then grown for an additional 4 or 5 days until growth was density arrested. On day 6 after plating, cells in the plate upper half were loaded with 20 μM CM-H2DCFDA (measures ROS level) and in the plate lower half with 10 μM JC-1 (measures Δψm) for 30 minutes at 37° C. […] For the ROS and Δψm assays, a fluorescence plate reader was used to quantify ROS production (490-nm excitation, 522-nm emission), and green monomer of JC-1 (490-nm excitation, 522-nm emission) and red JC-1 aggregate (535-nm excitation, 590-nm emission), respectively. […] The WST reagent was quantified with a plate reader at 440 nm and a reference wavelength at 690 nm. Data were normalized to untreated control as 100% and were expressed as the mean±SD.

[2] = Week 24, Group 1 crossover (sham day 1, 1 mg IVT wk 16), subset gain ≥8 letters at any week, n = 3
[3] = Week 24, Group 1 crossover (sham day 1, 1 mg IVT wk 16), subset gain ≥8 letters at primary endpoint week, n = 2
[4] = Week 24, Group 2 (1 mg IVT day 1 + wk 16), subset gain ≥8 letters at any week, n = 14
[5] = Week 24, Group 2 (1 mg IVT day 1 + wk 16), subset gain ≥8 letters at primary endpoint week, n = 12
[6] = Week 28, Group 1 crossover (sham day 1, 1 mg IVT wk 16), subset gain ≥8 letters at any week, n = 3
[7] = Week 28, Group 1 crossover (sham day 1, 1 mg IVT wk 16), subset gain ≥8 letters at primary endpoint week, n = 2
[8] = Week 28, Group 2 (1 mg IVT day 1 + wk 16), n = 25
[9] = Week 28, Group 2 (1 mg IVT day 1 + wk 16), subset gain ≥8 letters at any week, n = 14
[10] = Week 28, Group 2 (1 mg IVT day 1 + wk 16), subset gain ≥8 letters at primary endpoint week, n = 12
[11] = Week 28 vs baseline, Group 2 (1 mg IVT day 1 + wk 16), n = 25
[12] = Week 32, Group 1 crossover (sham day 1, 1 mg IVT wk 16), subset gain ≥8 letters at any week, n = 3
[13] = Week 32, Group 1 crossover (sham day 1, 1 mg IVT wk 16), subset gain ≥8 letters at primary endpoint week, n = 2
[14] = Week 32, Group 2 (1 mg IVT day 1 + wk 16), subset gain ≥8 letters at any week, n = 14
[15] = Week 32, Group 2 (1 mg IVT day 1 + wk 16), subset gain ≥8 letters at primary endpoint week, n = 12
[16] = risuteganib eyes with geographic atrophy in foveal center at baseline (n = 2)
[17] = risuteganib eyes with no geographic atrophy in foveal center at baseline (n = 23)

C[C@@H](O)[C@H](NC(=O)[C@H](CS(=O)(=O)O)NC(=O)CNC(=O)[C@H](CCCNC(=N)N)NC(=O)CN)C(=O)N1CCC[C@H]1C(=O)O [risuteganib, Glycyl-L-arginylglycyl-3-sulfo-L-alanyl-L-threonyl-L-proline] (H-GRG[Cya]TP-OH)
BCVA letters read, mean [1, 2]: 78.3 letters read
BCVA letters read, median [1, 2]: 79.0 letters read
BCVA change in letters read, mean [1, 3]: 8.0 letters read
BCVA change in letters read, median [1, 3]: 8.0 letters read
BCVA letters read, mean [1, 3]: 78.0 letters read
BCVA letters read, median [1, 3]: 78.0 letters read
BCVA change in letters read, mean [1, 4]: 10.2 letters read
BCVA change in letters read, median [1, 4]: 9.5 letters read
BCVA letters read, mean [1, 4]: 72.7 letters read
BCVA letters read, median [1, 4]: 74.5 letters read
BCVA change in letters read, mean [1, 5]: 11.4 letters read
BCVA change in letters read, median [1, 5]: 10.0 letters read
BCVA letters read, mean [1, 5]: 74.3 letters read
BCVA letters read, median [1, 5]: 75.5 letters read
BCVA change in letters read, mean [1, 6]: 8.0 letters read
BCVA change in letters read, median [1, 6]: 9.0 letters read
BCVA letters read, mean [1, 6]: 77.7 letters read
BCVA letters read, median [1, 6]: 74.0 letters read
BCVA change in letters read, mean [1, 7]: 9.5 letters read
BCVA change in letters read, median [1, 7]: 9.5 letters read
BCVA letters read, mean [1, 7]: 79.5 letters read
BCVA letters read, median [1, 7]: 79.5 letters read
BCVA letters read at primary endpoint week, mean [1, 8]: 70.5 letters read
BCVA letters read at primary endpoint week, median [1, 8]: 71.0 letters read
BCVA change in letters read, mean [1, 9]: 11.4 letters read
BCVA change in letters read, median [1, 9]: 11.5 letters read
BCVA letters read, mean [1, 9]: 73.9 letters read
BCVA letters read, median [1, 9]: 74.5 letters read
BCVA change in letters read, mean [1, 10]: 12.8 letters read
BCVA change in letters read, median [1, 10]: 12.0 letters read
BCVA letters read, mean [1, 10]: 75.7 letters read
BCVA letters read, median [1, 10]: 75.5 letters read
BCVA change in letters read at primary endpoint week, mean [1, 11]: 6.1 letters read
BCVA change in letters read at primary endpoint week, median [1, 11]: 6.0 letters read
BCVA change in letters read, mean [1, 12]: 6.3 letters read
BCVA change in letters read, median [1, 12]: 6.0 letters read
BCVA letters read, mean [1, 12]: 76.0 letters read
BCVA letters read, median [1, 12]: 75.0 letters read
BCVA change in letters read, mean [1, 13]: 6.5 letters read
BCVA change in letters read, median [1, 13]: 6.5 letters read
BCVA letters read, mean [1, 13]: 76.5 letters read
BCVA letters read, median [1, 13]: 76.5 letters read
BCVA change in letters read, mean [1, 14]: 8.2 letters read
BCVA change in letters read, median [1, 14]: 9.5 letters read
BCVA letters read, mean [1, 14]: 70.7 letters read
BCVA letters read, median [1, 14]: 73.0 letters read
BCVA change in letters read, mean [1, 15]: 9.5 letters read
BCVA change in letters read, median [1, 15]: 10.5 letters read
BCVA letters read, mean [1, 15]: 72.4 letters read
BCVA letters read, median [1, 15]: 74.0 letters read
≥10 Letter Improvement in Visual Acuity, % [1, 16]: (50) %
≥15 Letter Improvement in Visual Acuity, % [1, 16]: (0) %
≥10 Letter Improvement in Visual Acuity, % [1, 17]: (30) %
≥15 Letter Improvement in Visual Acuity, % [1, 17]: (22) %
Improvement of HQ-reduced cell viability (primary human RPE cells): 16%
